The record followed here is US11266643B2, “Triaryl compounds for treatment of PD-L1 diseases” (CHEMOCENTRYX, INC., priority 2019, dated 2022).

The structures appear in SMILES notation. A value given as a limit tells only on which side of the number the result lay.

Broadly, the IC50 is the point on the concentration scale where inhibition reaches its midpoint. Read a high IC50 as a need for much substance.

The experiment has as its target human PD-L1 (Homo sapiens (Human), UniProt Q9NZQ7). The experiment in a line: Enzyme-Linked Immunosorbent Assay (ELISA), PD-1/PD-L1 binding. The procedure, abridged:
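Competitive ELISA: human PD-1 […] (0.31 μg/mL) and serially diluted compounds (1:5) incubated 1 h at 37° C on wells coated with […] human PD-L1. Signal via streptavidin-HRP/TMB, stopped with 2 N H2SO4, measured as A450.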

The mark [1] stands for this setting: plate-coated human PD-L1, biotinylated Human PD-1, absorbance at 450 nm.
Setting [2] is: human PD-1/PD-L1 ELISA, plates coated with human PD-L1.
Setting [3] is: PD-1/PD-L1 ELISA, human PD-L1 coated plates, Table 1.

Chain of human PD-L1 (Q9NZQ7 19-239): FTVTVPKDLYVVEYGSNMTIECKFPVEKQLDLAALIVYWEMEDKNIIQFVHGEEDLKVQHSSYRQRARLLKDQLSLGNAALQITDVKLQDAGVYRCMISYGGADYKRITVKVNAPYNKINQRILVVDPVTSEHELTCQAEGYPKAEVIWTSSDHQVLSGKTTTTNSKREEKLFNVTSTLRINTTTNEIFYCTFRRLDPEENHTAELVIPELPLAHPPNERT

Under setting [1], `COc1cc(-c2cccc(-c3cccc(NC(=O)c4cn(C)c(=O)n(C)c4=O)c3Cl)c2Cl)cc(F)c1CN1CCC(C)(C(=O)O)CC1` [Example 2.005] yielded an IC50 below 10 nM.
The compound `COc1cc(-c2cccc(-c3cccc(NC(=O)c4cn(C)c(=O)n(C)c4=O)c3C)c2Cl)cc(F)c1CN[C@H]1CCOC[C@H]1OC` [Example 2.024] gave an IC50 under setting [1] below 10 nM.
On the same count and under the same terms, with `COc1cc(-c2cccc(-c3cccc(NC(=O)c4cn(C)c(=O)n(C)c4=O)c3C)c2Cl)cc(F)c1CN[C@@H]1COCC[C@H]1O` [Example 2.086] the figure was below 10 nM; with `COc1cc(-c2cccc(-c3cccc(Nc4nccc5nccnc45)c3C)c2Cl)cc(F)c1CNCC(C)(C)C(N)=O` [Example 2.113], below 10 nM.
Compound `COc1cc(-c2cccc(-c3cccc(NC(=O)c4cn(C)c(=O)n(C)c4=O)c3C)c2Cl)cc(F)c1CNCC1(C(N)=O)CC1` [Example 2.059] had an IC50 under setting [1] below 10 nM.
On the same count and under the same terms, with `COc1cc(-c2cccc(-c3cccc(NC(=O)c4cn(C)c(=O)n(C)c4=O)c3Cl)c2Cl)cc(F)c1CN[C@@H]1CCOC1` [Example 2.065] the figure was below 10 nM.
As for `COc1cc(-c2cccc(-c3cccc(NC(=O)c4cccn(C)c4=O)c3C)c2C)cc(F)c1CNCc1c[nH]c(=O)[nH]c1=O` [Example 1.097], the IC50 under setting [2] was below 10 nM.
Under setting [3], `COc1cc(-c2cccc(-c3cccc(NC(=O)c4ccc(Cl)cn4)c3C)c2C)cc(F)c1CN1CC(C(=O)O)C1` [Example 1.369] had an IC50 of 10 to 1000 nM.
Turning to `COc1cc(-c2cccc(-c3cccc(NC(=O)c4nn(C)c(=O)n(C)c4=O)c3C)c2C)cc(F)c1CNC[C@@H]1CCC(=O)N1` [Example 1.104], under setting [2], the IC50 was below 10 nM.
On to `COc1cc(-c2cccc(-c3cccc(NC(=O)c4cn(C)c(=O)n(C)c4=O)c3C)c2Cl)cc(F)c1CN1CCC2(CCNC2=O)CC1` [Example 2.006], for which the IC50 under setting [1] lay in the range of 10 to 1000 nM.
In turn, `COc1cc(-c2cccc(-c3cccc(NC(=O)c4cn(C)c(=O)n(C)c4=O)c3C)c2C)cc(F)c1CNCCO` [Example 1.179] displayed an IC50 under setting [2] below 10 nM.
In the case of `COc1cc(-c2cccc(-c3cccc(NC(=O)c4ccccn4)c3C)c2C)cc(F)c1CN1CCOC[C@H]1CO` [Example 1.373], the IC50 under setting [3] was 10 to 1000 nM.
Compound `COc1cc(-c2cccc(-c3cccc(NC(=O)c4cn(C)c(=O)n(C)c4=O)c3F)c2C)cc(F)c1CNC[C@@H]1CCC(=O)N1` [Example 1.037] displayed a 50% inhibitory concentration (IC50) under setting [2] below 10 nM.
The compound `COc1cc(-c2cccc(-c3cccc(NC(=O)c4cn(C)c(=O)n(C)c4=O)c3C)c2Cl)cc(F)c1CN[C@@H]1CCC[C@H]1O` [Example 2.052] had an IC50 under setting [1] below 10 nM.
Regarding `COc1cc(-c2cccc(-c3cccc(NC(=O)c4ccccn4)c3C)c2C)cc(F)c1C(C)N` (stereo not shown) [Example 1.344], the IC50 under setting [3] was 10 to 1000 nM.
`COc1cc(-c2cccc(-c3cccc(NC(=O)c4c[nH]c(=O)n(C)c4=O)c3C)c2C)cc(F)c1CNCC1CCNC(=O)C1` (stereo not shown) [Example 1.071] registered a concentration for half-maximal inhibition (IC50) under setting [2] below 10 nM.
In turn, `COC(=O)c1ccc(C(=O)Nc2cccc(-c3cccc(-c4cc(F)c(CN)c(OC)c4)c3C)c2C)nc1` [Example 1.353] displayed an IC50 under setting [3] of 10 to 1000 nM.
As to `COc1cc(-c2cccc(-c3cccc(NC(=O)c4cn(C)c(=O)n(C)c4=O)c3Cl)c2Cl)cc(F)c1CN(C)[C@@H]1CNC(=O)C1` [Example 2.068], under setting [1], the IC50 was below 10 nM.
Under setting [2], `COc1cc(-c2cccc(-c3cccc(NC(=O)c4cncn(C)c4=O)c3C)c2C)cc(F)c1CN[C@H]1CCC[C@@H]1O` [Example 1.172] displayed an IC50 below 10 nM.
On to `COc1cc(-c2cccc(-c3cccc(NC(=O)c4cn(C)c(=O)n(C)c4=O)c3Cl)c2Cl)cc(F)c1CN[C@H]1CCOC[C@H]1O` [Example 1.008], for which the IC50 under setting [2] was below 10 nM.
For `COc1cc(-c2cccc(-c3cccc(Nc4cccc5ncn(C)c(=O)c45)c3C)c2C)cc(F)c1CN1CC(C(=O)O)C1` [Example 1.287], the IC50 under setting [3] was below 10 nM.
`COc1cc(-c2cccc(-c3cccc(NC(=O)c4ccccn4)c3C)c2C)cc(F)c1CN1CC[C@H](C(=O)O)C1` [Example 1.368] showed an IC50 under setting [3] of 10 to 1000 nM.
With `COc1cc(-c2cccc(-c3cccc(NC(=O)c4cncn(C)c4=O)c3C)c2C)cc(F)c1CNC1CCOCC1` [Example 1.087], under setting [2], the IC50 was below 10 nM.
As to `COc1cc(-c2cccc(-c3cccc(NC(=O)c4cncn(C)c4=O)c3C)c2C)cc(F)c1CNC1CCNC(=O)C1` (stereo not shown) [Example 1.103], the IC50 under setting [2] is below 10 nM.
On to `COc1cc(-c2cccc(-c3cccc(NC(=O)c4cn(C)c(=O)n(C)c4=O)c3Cl)c2Cl)cc(F)c1CN[C@@H]1COC[C@@H]1O` [Example 2.073], for which, under setting [1], the IC50 was below 10 nM.
`COc1cc(-c2cccc(-c3cccc(Nc4nccc5ccn(C)c(=O)c45)c3C)c2C)cc(F)c1CN1CC(C(=O)O)C1` [Example 1.278] came in with a half-maximal inhibitory concentration (IC50) under setting [3] below 10 nM.
In the case of `COc1cc(-c2cccc(-c3cccc(NC(=O)c4nn(C)c(=O)n(C)c4=O)c3C)c2C)cc(F)c1CNCC[C@@H]1CCC(=O)N1` [Example 1.088], the IC50 under setting [2] was below 10 nM.
`COc1cc(-c2cccc(-c3cccc(NC(=O)c4ccc(C(=O)NCCO)cn4)c3C)c2C)cc(F)c1CN1CC(C(=O)O)C1` [Example 1.285]: the IC50 under setting [3] is below 10 nM.
As for `COc1cc(-c2cccc(-c3cccc(NC(=O)c4cn(C)c(=O)n(C)c4=O)c3C)c2Cl)cc(F)c1CN1CCC2(CCNC2=O)C1` (stereo not shown) [Example 2.007], the IC50 under setting [1] is below 10 nM.
Take `COc1cc(-c2cccc(-c3cccc(NC(=O)c4c[nH]c(=O)n(C)c4=O)c3C)c2C)cc(F)c1CN(C)CC(N)=O` [Example 1.251]: the half-maximal inhibitory concentration (IC50) under setting [3] lay within 10 to 1000 nM.
Under setting [1], `COc1cc(-c2cccc(-c3cccc(NC(=O)c4cn(C)c(=O)n(C)c4=O)c3C)c2Cl)cc(F)c1CN[C@@H]1CCOC[C@H]1O` [Example 2.102] had an IC50 below 10 nM.
`COc1cc(-c2cccc(-c3cccc(NC(=O)c4nn(C)c(=O)n(C)c4=O)c3C)c2C)cc(F)c1CNCCC1CCC(=O)N1` (stereo not shown) [Example 1.106] gave an IC50 under setting [2] below 10 nM.
With `COc1cc(-c2cccc(-c3cccc(NC(=O)c4cn(C)c(=O)n(C)c4=O)c3C)c2F)cc(F)c1CN[C@H]1CCC(=O)NC1` [Example 1.005], the concentration for half-maximal inhibition (IC50) under setting [2] was below 10 nM.
Same read-out and setting: with `COc1cc(-c2cccc(-c3cccc(NC(=O)c4c[nH]c(=O)n(C)c4=O)c3C)c2C)cc(F)c1CN[C@@H]1CCNC1=O` [Example 1.138] the figure was 10 to 1000 nM.
`COc1cc(-c2cccc(-c3cccc(NC(=O)c4ccccn4)c3C)c2C)cc(F)c1CN1CC(C)(C(=O)O)C1` [Example 1.360] displayed an IC50 under setting [3] below 10 nM.
Take `COc1cc(-c2cccc(-c3cccc(NC(=O)c4cncn(C)c4=O)c3C)c2C)cc(F)c1CNC1COC1` [Example 1.197]: under setting [2], the IC50 was below 10 nM.
The compound `COc1cc(-c2cccc(-c3cccc(NC(=O)c4c[nH]c(=O)n(C)c4=O)c3C)c2C)cc(F)c1CNCCO` [Example 1.270] had an IC50 under setting [3] below 10 nM.
Take `COc1cc(-c2cccc(-c3cccc(NC(=O)c4c[nH]c(=O)n(C)c4=O)c3C)c2C)cc(F)c1CNCCC1CCC(=O)N1` (stereo not shown) [Example 1.141]: under setting [2], the IC50 is below 10 nM.
Under setting [3], `COc1cc(-c2cccc(-c3cccc(Nc4cccc5c4C(=O)N(C)C5)c3C)c2C)cc(F)c1CN1CC(C(=O)O)C1` [Example 1.250] gave an IC50 of 10 to 1000 nM.
Still for that read-out and setting: with `COc1cc(-c2cccc(-c3cccc(NC(=O)C4CCCCN4)c3C)c2C)cc(F)c1CN1CC(C(=O)O)C1` (stereo not shown) [Example 1.350] the figure was 1000 to 10000 nM; with `COc1cc(-c2cccc(-c3cccc(NC(=O)C4CNCCO4)c3C)c2C)cc(F)c1CNCCO` (stereo not shown) [Example 1.324], 10 to 1000 nM.
Same read-out and setting: with `COc1cc(-c2cccc(-c3cccc(Nc4nccc5nccnc45)c3C)c2C)cc(F)c1CN1CC(O)C1` [Example 1.231] the figure was below 10 nM.
In turn, `COc1cc(-c2cccc(-c3cccc(NC(=O)c4cn(C)c(=O)n(C)c4=O)c3C)c2C)cc(F)c1CN[C@@H]1COCC[C@H]1O` [Example 1.002] displayed an IC50 under setting [2] below 10 nM.
Turning to `COc1cc(-c2cccc(-c3cccc(NC(=O)c4cn(C)c(=O)n(C)c4=O)c3Cl)c2Cl)cc(F)c1CN[C@@H]1CCOC[C@H]1O` [Example 1.006], under setting [2], the IC50 is below 10 nM.
In the case of `COc1cc(-c2cccc(-c3cccc(Nc4nccc5nccnc45)c3C)c2C)cc(F)c1CNCc1ccn[nH]1` [Example 1.116], the half-inhibitory concentration (IC50) under setting [2] fell in the range of 10 to 1000 nM.
As to `COc1cc(-c2cccc(-c3cccc(NC(=O)c4cncn(C)c4=O)c3C)c2C)cc(F)c1CNCCC(=O)O` [Example 1.266], the IC50 under setting [3] was below 10 nM.
`COc1cc(-c2cccc(-c3cccc(NC(=O)c4cn(C)c(=O)n(C)c4=O)c3Cl)c2C)cc(F)c1CN(C)C[C@@H]1CCC(=O)N1` [Example 2.100] showed an IC50 under setting [1] below 10 nM.
Regarding `COc1cc(-c2cccc(-c3cccc(NC(=O)c4cn(C)c(=O)n(C)c4=O)c3C)c2Cl)cc(F)c1CN[C@H]1CCOC[C@@H]1O` (racemic) [Example 1.011], the IC50 under setting [2] was below 10 nM.
Under setting [1], `CCOc1cc(-c2cccc(-c3cccc(NC(=O)c4cn(C)c(=O)n(C)c4=O)c3C)c2Cl)ccc1CN[C@@H]1CCOC[C@@H]1O` [Example 2.048] displayed a half-maximal inhibitory concentration (IC50) below 10 nM.
Take `COc1cc(-c2cccc(-c3cccc(NC(=O)c4cn(C)c(=O)n(C)c4=O)c3C)c2Cl)cc(F)c1CNC(C)(C)CO` [Example 2.057]: the IC50 under setting [1] is below 10 nM.
Under setting [2], `COc1cc(-c2cccc(-c3cccc(NC(=O)c4cccn(C)c4=O)c3C)c2C)cc(F)c1CNC(C)C` [Example 1.170] returned an IC50 below 10 nM.
Take `COc1cc(-c2cccc(-c3cccc(NC(=O)c4cn(C)c(=O)n(C)c4=O)c3C)c2C)cc(F)c1CN[C@H]1CCOC1` [Example 1.039]: the IC50 under setting [2] was below 10 nM.
On the same count and under the same terms, with `COc1cc(-c2cccc(-c3cccc(NC(=O)c4cn(C)c(=O)n(C)c4=O)c3C)c2F)cc(F)c1CN[C@@H]1CCOC[C@@H]1O` [Example 1.016] the figure was below 10 nM.
Take `COc1cc(-c2cccc(-c3cccc(NC(=O)c4cn(C)c(=O)n(C)c4=O)c3Cl)c2Cl)cc(F)c1CN[C@H]1COC[C@@H]1O` [Example 2.076]: under setting [1], the IC50 is below 10 nM.
The compound `COc1cc(-c2cccc(-c3cccc(NC(=O)c4cn(C)c(=O)n(C)c4=O)c3C)c2C)cc(F)c1CN[C@H]1CNC(=O)C1` [Example 1.127] had an IC50 under setting [2] below 10 nM.
